This is an account of results in patent US20240376094A2, “SELECTIVE BCL-XL PROTAC COMPOUNDS AND METHODS OF USE” (Les Laboratoires Servier, priority 2021, published 2024).

One test concerns the target T1, Bcl-xL (Homo sapiens, UniProt Q07817).
T1 construct: Measured levels of Bcl-xL protein of HCT116 cells treated with the tested compounds; host or cells: HCT116
In words: HCT116 Bcl-xL degradation, capillary-based immunoassay (WES). The settings on record: for remaining activity at 0.01 µM / remaining activity at 0.1 µM: HCT-116, 24 h, % of untreated cells; for remaining activity at 0.01 µM: HCT116, 10 nM; for remaining activity at 0.1 µM: HCT116, 100 nM; for DC50: HCT116, 24 h, 9-point serial dilution. The format is cell-based. In a few lines:
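Bcl-xL protein level by capillary WES immunoassay in HCT116 lysates, as % of untreated after cofilin normalization. Compound exposure was 24 h at 10 and 100 nM and/or a 9-point series, in quadruplicate. Four-parameter fitting gave the DC50.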

Another test concerns MOLT-4 cells. In words: MOLT-4 cell viability, MTT assay. The settings on record: Homo sapiens, MOLT-4, 48 h. The format is cell-based. An excerpt:
The MTT colorimetric assay is based on the mitochondrial reduction of tetrazolium salt by living cells. The viable cell number is proportional to the production of formazan salts, which can be read spectrophotometrically at 540 nm. The CTG luminescent assay (CellTiter GLO, Promega) is based on a reagent which lyses cells and measures total adenosine triphosphate (ATP) content. The viable cell number is proportional to the production of ATP.
MOLT-4 cells were purchased from ATCC and cultivated in RPMI 1640 supplemented with 10% heat inactivated fetal bovine serum, penicillin (100 IU/mi), streptomycin (100 μg/ml) and L-glutamine (2 mM). Cells were cultured at 37° C. in a humidified atmosphere containing 5% […].
For MTT assay, cells were seeded in 96 microwell plates (150 μL per well) and exposed to the compounds for 48 h (3.16 fold serially diluted; 9 concentrations each, triplicates). At the end of incubation time, 15 μL of MTT solution (5 mg/ml) were added per well and the cells were incubated for another 4 h. Then, 100 μL of 10% Sodium Dodecyl Sulfate (SDS)/HCl 10 mM were added per well and the plate was incubated overnight, before measurement of optical density at 540 nm.
IC50, were calculated using standard four-parametric curve fitting. IC50 is defined as the compound concentration at which the MTT or CTG signal is reduced to 50% of that measured for the control. Results shown in Table 14 represent the mean of at least 2 independent experiments.
A general note: Formazan colour is commonly taken as a measure of viable cells.

T1 sequence (Q07817 whole entry): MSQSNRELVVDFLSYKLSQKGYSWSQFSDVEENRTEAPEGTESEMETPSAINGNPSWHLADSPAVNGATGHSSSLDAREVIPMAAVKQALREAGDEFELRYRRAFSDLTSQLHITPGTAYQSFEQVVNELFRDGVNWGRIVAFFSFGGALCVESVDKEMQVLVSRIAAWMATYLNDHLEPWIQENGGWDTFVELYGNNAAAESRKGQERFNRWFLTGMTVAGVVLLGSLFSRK

Broadly, the remaining activity is the share of the control activity or signal that is left under treatment. What is called IC50 is the midpoint of a concentration-inhibition curve. Higher therefore signals lower potency. On Bcl-xL, `Cc1cc(N(CCCCCn2cc(COCCOCCOCCOCCNc3cccc4c3C(=O)N(C3CCC(=O)NC3=O)C4=O)nn2)c2ccc(-c3cnn(CC45CC6(C)CC(C)(C4)CC(OCCN(C)C)(C6)C5)c3C)c(C(=O)O)n2)nnc1Nc1nc2ccccc2s1` (stereo not drawn) [Example 153, 6-[[6-(1,3-benzothiazol-2-ylamino)-5-methyl-pyridazin-3-yl]-[5-[4-[2-[2-[2-[2-[[2-(2,6-dioxo-3-piperidyl)-1,3-dioxo-isoindolin-4-yl]amino]ethoxy]ethoxy]ethoxy]ethoxymethyl]triazol-1-yl]pentyl]amino]-3-[1-[[3-[2-(dimethylamino)ethoxy]-5,7-dimethyl-1-adamantyl]methyl]-5-methyl-pyrazol-4-yl]pyridine-2-carboxylic acid] displayed a remaining activity at 0.01 µM of 59% and a remaining activity at 0.1 µM of 40%. In the test with MOLT-4 cells, this compound registered a half-maximal inhibitory concentration (IC50) of 0.0275 µM.
By DC50 is commonly meant the midpoint of the concentration-degradation curve. Lower therefore signals degradation at low concentration. Consider `Cc1cc(N(CCCCCn2cc(COCCOCCOCCNc3cccc4c3C(=O)N(C3CCC(=O)NC3=O)C4=O)nn2)c2ccc(-c3cnn(C[C@@]45C[C@]6(C)C[C@](C)(C4)C[C@](OCCN(C)C)(C6)C5)c3C)c(C(=O)O)n2)nnc1Nc1nc2ccccc2s1` (stereo partly drawn) [Example 62, 6-[[6-(1,3-benzothiazol-2-ylamino)-5-methyl-pyridazin-3-yl]-[5-[4-[2-[2-[2-[[2-(2,6-dioxo-3-piperidyl)-1,3-dioxo-isoindolin-4-yl]amino]ethoxy]ethoxy]ethoxymethyl]triazol-1-yl]pentyl]amino]-3-[1-[[3-[2-(dimethylamino)ethoxy]-5,7-dimethyl-1-adamantyl]methyl]-5-methyl-pyrazol-4-yl]pyridine-2-carboxylic acid], for which, at Bcl-xL, the DC50 was 0.0136 µM, the remaining activity at 0.01 µM is 47% and the remaining activity at 0.1 µM is 7%. The same compound had an IC50 in the test on MOLT-4 cells of 0.0241 µM.
On Bcl-xL, `Cc1cc(N(CCCCCn2cc(COCCOCCNc3cccc4c3C(=O)N(C3CCC(=O)NC3=O)C4=O)nn2)c2ccc(-c3cnn(CC45CC6(C)CC(C)(C4)CC(OCCN(C)C)(C6)C5)c3C)c(C(=O)O)n2)nnc1Nc1nc2ccccc2s1` (stereo not drawn) [Example 61, 6-[[6-(1,3-benzothiazol-2-ylamino)-5-methyl-pyridazin-3-yl]-[5-[4-[2-[2-[[2-(2,6-dioxo-3-piperidyl)-1,3-dioxo-isoindolin-4-yl]amino]ethoxy]ethoxymethyl]triazol-1-yl]pentyl]amino]-3-[1-[[3-[2-(dimethylamino)ethoxy]-5,7-dimethyl-1-adamantyl]methyl]-5-methyl-pyrazol-4-yl]pyridine-2-carboxylic acid] displayed a DC50 of 0.00749 µM, a remaining activity at 0.01 µM of 46% and a remaining activity at 0.1 µM of 16%. In the test on MOLT-4 cells, half-maximal inhibition (IC50) was put at 0.0164 µM.
Consider `Cc1cc(N(CCCCCn2cc(CCCCCCCNc3cccc4c3C(=O)N(C3CCC(=O)NC3=O)C4=O)nn2)c2ccc(-c3cnn(CC45CC6(C)CC(C)(C4)CC(OCCN(C)C)(C6)C5)c3C)c(C(=O)O)n2)nnc1Nc1nc2ccccc2s1` (stereo not drawn) [Example 150, 6-[[6-(1,3-benzothiazol-2-ylamino)-5-methyl-pyridazin-3-yl]-[5-[4-[7-[[2-(2,6-dioxo-3-piperidyl)-1,3-dioxo-isoindolin-4-yl]amino]heptyl]triazol-1-yl]pentyl]amino]-3-[1-[[3-[2-(dimethylamino)ethoxy]-5,7-dimethyl-1-adamantyl]methyl]-5-methyl-pyrazol-4-yl]pyridine-2-carboxylic acid], for which it took 0.0145 µM to reach half-maximal degradation at Bcl-xL (DC50). In the test with MOLT-4 cells, the 50% inhibitory concentration (IC50) came to 0.0193 µM.
Consider `Cc1ncsc1-c1ccc(CNC(=O)[C@@H]2C[C@@H](O)CN2C(=O)[C@@H](NC(=O)CCCCCCC(=O)N2CCN(CC#Cc3ccc(OCCCc4sc(N5CCCc6c5nnc(Nc5nc7ccccc7s5)c6C)nc4C(=O)O)c(F)c3)CC2)C(C)(C)C)cc1` [Example 20, 2-[3-(1,3-benzothiazol-2-ylamino)-4-methyl-6,7-dihydro-5H-pyrido[2,3-c]pyridazin-8-yl]-5-[3-[2-fluoro-4-[3-[4-[8-[[(1S)-1-[(2S,4R)-4-hydroxy-2-[[4-(4-methylthiazol-5-yl)phenyl]methylcarbamoyl]pyrrolidine-1-carbonyl]-2,2-dimethyl-propyl]amino]-8-oxo-octanoyl]piperazin-1-yl]prop-1-ynyl]phenoxy]propyl]thiazole-4-carboxylic acid], for which, at Bcl-xL, the remaining activity at 0.01 µM amounted to 51% and the remaining activity at 0.1 µM is 31%. This compound yielded an IC50 in the test on MOLT-4 cells of 0.00449 µM.
For the compound `Cc1c(Nc2nc3ccccc3s2)nnc2c1CCCN2c1ccc(-c2cnn(CC34CC5(C)CC(C)(C3)CC(OCCN(C)CCCCCCCCCCCCOc3ccc6c(c3)C(=O)N(C3CCC(=O)NC3=O)C6=O)(C5)C4)c2C)c(C(=O)O)n1` (stereo not drawn) [Example 140, 6-[3-(1,3-benzothiazol-2-ylamino)-4-methyl-6,7-dihydro-5H-pyrido[2,3-c]pyridazin-8-yl]-3-[1-[[3-[2-[12-[2-(2,6-dioxo-3-piperidyl)-1,3-dioxo-isoindolin-5-yl]oxydodecyl-methyl-amino]ethoxy]-5,7-dimethyl-1-adamantyl]methyl]-5-methyl-pyrazol-4-yl]pyridine-2-carboxylic acid], it took 0.00308 µM to reach half-maximal degradation on Bcl-xL (DC50). Besides, in the test on MOLT-4 cells, the IC50 was found to be 0.000311 µM.
At Bcl-xL, `CNCC#Cc1ccc(OCCCc2sc(N(CCCc3cn(CCOCCOCCOCCNC(=O)COc4cccc5c4C(=O)N(C4CCC(=O)NC4=O)C5=O)nn3)c3cc(C)c(Nc4nc5ccccc5s4)nn3)nc2C(=O)O)c(F)c1` (stereo not drawn) [Example 27, 2-[[6-(1,3-benzothiazol-2-ylamino)-5-methyl-pyridazin-3-yl]-[3-[1-[2-[2-[2-[2-[[2-[2-(2,6-dioxo-3-piperidyl)-1,3-dioxo-isoindolin-4-yl]oxyacetyl]amino]ethoxy]ethoxy]ethoxy]ethyl]triazol-4-yl]propyl]amino]-5-[3-[2-fluoro-4-[3-(methylamino)prop-1-ynyl]phenoxy]propyl]thiazole-4-carboxylic acid] registered a remaining activity at 0.01 µM of 60% and a remaining activity at 0.1 µM of 49%. The same compound had an IC50 in the test on MOLT-4 cells of 0.669 µM.
On Bcl-xL, `Cc1cc(N(CCCCCn2cc(COCCOCCOCCNC(=O)COc3cccc4c3C(=O)N(C3CCC(=O)NC3=O)C4=O)nn2)c2ccc(-c3cnn(CC45CC6(C)CC(C)(C4)CC(OCCN(C)C)(C6)C5)c3C)c(C(=O)O)n2)nnc1Nc1nc2ccccc2s1` (stereo not drawn) [Example 63, 6-[[6-(1,3-benzothiazol-2-ylamino)-5-methyl-pyridazin-3-yl]-[5-[4-[2-[2-[2-[[2-[2-(2,6-dioxo-3-piperidyl)-1,3-dioxo-isoindolin-4-yl]oxyacetyl]amino]ethoxy]ethoxy]ethoxymethyl]triazol-1-yl]pentyl]amino]-3-[1-[[3-[2-(dimethylamino)ethoxy]-5,7-dimethyl-1-adamantyl]methyl]-5-methyl-pyrazol-4-yl]pyridine-2-carboxylic acid] gave a DC50 of 0.053 µM, a remaining activity at 0.01 µM of 61% and a remaining activity at 0.1 µM of 39%. Besides, the IC50 in the test with MOLT-4 cells was found to be 0.0864 µM.
For the compound `Cc1c(Nc2nc3ccccc3s2)nnc2c1CCCN2c1ccc(-c2cnn(CC34CC5(C)CC(C)(C3)CC(OCCN(C)CCCCCCCCOc3ccc6c(c3)C(=O)N(C3CCC(=O)NC3=O)C6=O)(C5)C4)c2C)c(C(=O)O)n1` (stereo not drawn) [Example 10, 6-[3-(1,3-benzothiazol-2-ylamino)-4-methyl-6,7-dihydro-5H-pyrido[2,3-c]pyridazin-8-yl]-3-[1-[[3-[2-[8-[2-(2,6-dioxo-3-piperidyl)-1,3-dioxo-isoindolin-5-yl]oxyoctyl-methyl-amino]ethoxy]-5,7-dimethyl-1-adamantyl]methyl]-5-methyl-pyrazol-4-yl]pyridine-2-carboxylic acid], at Bcl-xL, the DC50 was above 0.316 µM, the remaining activity at 0.01 µM is 48% and the remaining activity at 0.1 µM was determined as 43%. This compound also had an IC50 with MOLT-4 cells of 0.000398 µM.
Take `Cc1ncsc1-c1ccc(CNC(=O)[C@@H]2C[C@@H](O)CN2C(=O)[C@@H](NC(=O)CCCC(=O)N2CCN(CC#Cc3ccc(OCCCc4sc(N5CCCc6c5nnc(Nc5nc7ccccc7s5)c6C)nc4C(=O)O)c(F)c3)CC2)C(C)(C)C)cc1` [Example 18, 2-[3-(1,3-benzothiazol-2-ylamino)-4-methyl-6,7-dihydro-5H-pyrido[2,3-c]pyridazin-8-yl]-5-[3-[2-fluoro-4-[3-[4-[5-[[(1S)-1-[(2S,4R)-4-hydroxy-2-[[4-(4-methylthiazol-5-yl)phenyl]methylcarbamoyl]pyrrolidine-1-carbonyl]-2,2-dimethyl-propyl]amino]-5-oxo-pentanoyl]piperazin-1-yl]prop-1-ynyl]phenoxy]propyl] thiazole-4-carboxylic acid]: on Bcl-xL, the DC50 was 0.0066 µM, the remaining activity at 0.01 µM stood at 52% and the remaining activity at 0.1 µM came out at 52%. Also, in the test on MOLT-4 cells, the IC50 was found to be 0.00272 µM.
